These results are taken from ChEMBL document CHEMBL3526030, “Transport of the coumarin metabolite 7-hydroxycoumarin glucuronide is mediated via multidrug resistance-associated proteins 3 and 4” (Drug Metab Dispos, 2012).

For data set [1], the target named is Multidrug resistance-associated protein 1 (Homo sapiens, UniProt P33527). Briefly: Activity at MRP1 (unknown origin) expressed in baculovirus-infected HEK293 cells assessed as drug transport at 400 uM after 10 mins by reversed-phase HPLC analysis in presence of ATP. It counts as ADME. As to conditions: hek293, 10 min, BLD = below limit of detection.
Chain of Multidrug resistance-associated protein 1 (P33527 whole entry): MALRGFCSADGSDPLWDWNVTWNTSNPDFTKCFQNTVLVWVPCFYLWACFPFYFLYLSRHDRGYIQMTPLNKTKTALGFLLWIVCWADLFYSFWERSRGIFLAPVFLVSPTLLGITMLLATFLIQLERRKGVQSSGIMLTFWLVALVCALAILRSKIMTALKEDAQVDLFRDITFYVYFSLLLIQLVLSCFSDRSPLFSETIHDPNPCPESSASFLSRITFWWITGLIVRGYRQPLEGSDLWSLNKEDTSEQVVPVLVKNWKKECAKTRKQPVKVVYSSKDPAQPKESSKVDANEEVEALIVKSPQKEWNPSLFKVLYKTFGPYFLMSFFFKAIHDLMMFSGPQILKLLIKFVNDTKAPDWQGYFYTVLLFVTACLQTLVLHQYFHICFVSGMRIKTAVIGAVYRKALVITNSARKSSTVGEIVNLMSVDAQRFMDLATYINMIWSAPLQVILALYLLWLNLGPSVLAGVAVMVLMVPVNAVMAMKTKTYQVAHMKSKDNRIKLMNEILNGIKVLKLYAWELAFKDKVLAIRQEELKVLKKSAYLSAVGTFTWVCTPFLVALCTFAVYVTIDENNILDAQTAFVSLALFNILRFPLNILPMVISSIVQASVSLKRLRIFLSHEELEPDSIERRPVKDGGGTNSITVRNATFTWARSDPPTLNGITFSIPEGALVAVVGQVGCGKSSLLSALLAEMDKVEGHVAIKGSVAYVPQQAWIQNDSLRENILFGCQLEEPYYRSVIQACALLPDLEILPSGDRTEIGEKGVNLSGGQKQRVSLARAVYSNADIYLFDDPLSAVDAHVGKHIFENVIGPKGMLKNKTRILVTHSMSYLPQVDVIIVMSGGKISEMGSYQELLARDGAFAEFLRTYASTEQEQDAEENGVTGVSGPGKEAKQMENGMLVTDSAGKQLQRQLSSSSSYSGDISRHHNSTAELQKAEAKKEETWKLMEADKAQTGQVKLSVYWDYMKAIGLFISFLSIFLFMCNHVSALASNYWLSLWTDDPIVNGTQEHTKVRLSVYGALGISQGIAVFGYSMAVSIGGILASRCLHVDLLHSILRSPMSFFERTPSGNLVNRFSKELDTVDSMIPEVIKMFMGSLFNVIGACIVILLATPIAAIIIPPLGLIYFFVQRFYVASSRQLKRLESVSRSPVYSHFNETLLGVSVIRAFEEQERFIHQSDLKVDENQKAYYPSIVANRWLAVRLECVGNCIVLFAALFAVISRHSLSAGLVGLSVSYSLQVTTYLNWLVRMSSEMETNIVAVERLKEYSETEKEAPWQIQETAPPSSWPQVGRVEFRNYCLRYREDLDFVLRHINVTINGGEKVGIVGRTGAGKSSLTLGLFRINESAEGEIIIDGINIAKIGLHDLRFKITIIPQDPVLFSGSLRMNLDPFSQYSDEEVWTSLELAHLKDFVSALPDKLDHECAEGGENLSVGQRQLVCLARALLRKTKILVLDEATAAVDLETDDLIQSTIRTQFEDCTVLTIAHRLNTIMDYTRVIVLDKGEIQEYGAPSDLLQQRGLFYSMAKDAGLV
Data set [2] has as its target ATP-binding cassette sub-family C member 2 (Homo sapiens, UniProt Q92887). Description: Activity at MRP2 (unknown origin) expressed in baculovirus-infected HEK293 cells assessed as drug transport at 400 uM after 10 mins by reversed-phase HPLC analysis in presence of ATP. It counts as ADME. To be noted: hek293, 10 min, BLD = below limit of detection.
The target in data set [3] is ATP-binding cassette sub-family C member 3 (Homo sapiens, UniProt O15438). Briefly: Activity at MRP3 (unknown origin) expressed in baculovirus-infected HEK293 cells assessed as drug transport at 400 uM after 10 mins by reversed-phase HPLC analysis in presence of ATP. It counts as ADME. To be noted: hek293, 10 min, BLD = below limit of detection.
Data set [4] concerns the target T1, ATP-binding cassette sub-family C member 4 (Homo sapiens, UniProt O15439).
T1 sequence (O15439 whole entry): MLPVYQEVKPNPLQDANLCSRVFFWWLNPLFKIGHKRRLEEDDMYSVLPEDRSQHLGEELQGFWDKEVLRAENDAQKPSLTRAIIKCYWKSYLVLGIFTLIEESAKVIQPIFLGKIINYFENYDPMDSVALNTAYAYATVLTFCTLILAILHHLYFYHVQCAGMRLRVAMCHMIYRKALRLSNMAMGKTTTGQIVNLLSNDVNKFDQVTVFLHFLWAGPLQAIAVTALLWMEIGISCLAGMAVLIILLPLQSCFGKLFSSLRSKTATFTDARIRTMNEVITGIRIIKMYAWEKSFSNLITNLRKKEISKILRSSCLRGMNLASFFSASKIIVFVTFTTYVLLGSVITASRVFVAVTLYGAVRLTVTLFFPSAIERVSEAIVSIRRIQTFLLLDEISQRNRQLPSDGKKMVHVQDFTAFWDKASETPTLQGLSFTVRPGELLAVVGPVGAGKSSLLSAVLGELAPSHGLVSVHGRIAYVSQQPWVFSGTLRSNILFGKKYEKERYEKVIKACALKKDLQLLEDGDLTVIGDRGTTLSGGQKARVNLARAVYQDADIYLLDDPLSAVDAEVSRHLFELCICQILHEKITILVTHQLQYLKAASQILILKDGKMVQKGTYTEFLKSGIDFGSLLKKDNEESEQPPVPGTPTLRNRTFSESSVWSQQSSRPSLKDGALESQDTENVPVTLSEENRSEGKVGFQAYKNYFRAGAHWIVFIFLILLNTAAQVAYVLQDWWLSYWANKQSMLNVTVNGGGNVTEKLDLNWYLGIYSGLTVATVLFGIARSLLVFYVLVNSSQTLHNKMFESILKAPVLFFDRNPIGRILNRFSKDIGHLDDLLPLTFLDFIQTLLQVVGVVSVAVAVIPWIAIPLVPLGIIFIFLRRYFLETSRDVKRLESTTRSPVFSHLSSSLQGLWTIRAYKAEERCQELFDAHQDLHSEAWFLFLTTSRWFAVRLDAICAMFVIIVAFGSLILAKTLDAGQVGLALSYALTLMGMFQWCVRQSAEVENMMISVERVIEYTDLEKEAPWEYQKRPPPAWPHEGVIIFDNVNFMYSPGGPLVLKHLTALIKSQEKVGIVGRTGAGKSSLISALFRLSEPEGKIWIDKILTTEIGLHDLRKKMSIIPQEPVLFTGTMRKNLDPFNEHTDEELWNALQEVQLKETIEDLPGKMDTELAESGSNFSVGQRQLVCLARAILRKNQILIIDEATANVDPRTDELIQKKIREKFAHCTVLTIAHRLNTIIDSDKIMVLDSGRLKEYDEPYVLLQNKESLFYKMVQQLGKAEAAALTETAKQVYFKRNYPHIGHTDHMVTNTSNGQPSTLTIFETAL
Briefly: Activity at MRP4 (unknown origin) expressed in baculovirus-infected HEK293 cells assessed as drug transport at 400 uM after 10 mins by reversed-phase HPLC analysis in presence of ATP. Type of data set: ADME. As to conditions: hek293, 10 min, BLD = below limit of detection.

Data set [5] has as its target T2, Broad substrate specificity ATP-binding cassette transporter ABCG2 (Homo sapiens, UniProt Q9UNQ0).
T2 sequence (Q9UNQ0 whole entry): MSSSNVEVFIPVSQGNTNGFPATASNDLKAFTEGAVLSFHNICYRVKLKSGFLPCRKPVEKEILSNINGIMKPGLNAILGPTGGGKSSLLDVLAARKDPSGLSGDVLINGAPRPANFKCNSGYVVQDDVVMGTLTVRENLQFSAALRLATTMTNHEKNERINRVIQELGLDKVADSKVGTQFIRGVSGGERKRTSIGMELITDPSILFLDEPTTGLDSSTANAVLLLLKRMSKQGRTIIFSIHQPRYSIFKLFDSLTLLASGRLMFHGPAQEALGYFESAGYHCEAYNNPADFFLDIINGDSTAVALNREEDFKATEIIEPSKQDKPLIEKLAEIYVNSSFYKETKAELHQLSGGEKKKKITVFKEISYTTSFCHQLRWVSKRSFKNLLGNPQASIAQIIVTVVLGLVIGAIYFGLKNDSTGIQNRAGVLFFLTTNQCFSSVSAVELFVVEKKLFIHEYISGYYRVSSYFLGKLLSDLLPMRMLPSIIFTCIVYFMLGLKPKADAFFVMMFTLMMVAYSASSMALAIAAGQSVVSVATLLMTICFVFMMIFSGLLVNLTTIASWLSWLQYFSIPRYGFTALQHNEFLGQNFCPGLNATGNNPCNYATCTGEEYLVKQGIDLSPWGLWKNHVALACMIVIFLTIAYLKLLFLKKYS
Description: Activity at BCRP (unknown origin) expressed in baculovirus-infected HEK293 cells assessed as drug transport at 400 uM after 10 mins by reversed-phase HPLC analysis in presence of ATP. To be noted: hek293, 10 min, BLD = below limit of detection. Type of data set: ADME.

Data set [6] in a line: Activity at P-gp (unknown origin) expressed in baculovirus-infected HEK293 cells assessed as drug transport at 400 uM after 10 mins by reversed-phase HPLC analysis in presence of ATP. Type of data set: ADME. As to conditions: human, hek293, 10 min, BLD = below limit of detection.
Substrate in data set [7]: O=C(O)[C@H]1O[C@@H](Oc2ccc3ccc(=O)oc3c2)[C@H](O)[C@@H](O)[C@@H]1O
Description: Activity at MRP4 (unknown origin) expressed in baculovirus-infected HEK293 cells assessed as drug transport after 10 mins by Michaelis-Menten plot analysis. Type of data set: ADME, Homo sapiens.

Substrate in data set [8]: O=C(O)[C@H]1O[C@@H](Oc2ccc3ccc(=O)oc3c2)[C@H](O)[C@@H](O)[C@@H]1O
Briefly: Activity at MRP3 (unknown origin) expressed in baculovirus-infected HEK293 cells assessed as drug transport after 10 mins by Michaelis-Menten plot analysis. It counts as ADME, Homo sapiens.

Chain of ATP-binding cassette sub-family C member 2 (Q92887 whole entry): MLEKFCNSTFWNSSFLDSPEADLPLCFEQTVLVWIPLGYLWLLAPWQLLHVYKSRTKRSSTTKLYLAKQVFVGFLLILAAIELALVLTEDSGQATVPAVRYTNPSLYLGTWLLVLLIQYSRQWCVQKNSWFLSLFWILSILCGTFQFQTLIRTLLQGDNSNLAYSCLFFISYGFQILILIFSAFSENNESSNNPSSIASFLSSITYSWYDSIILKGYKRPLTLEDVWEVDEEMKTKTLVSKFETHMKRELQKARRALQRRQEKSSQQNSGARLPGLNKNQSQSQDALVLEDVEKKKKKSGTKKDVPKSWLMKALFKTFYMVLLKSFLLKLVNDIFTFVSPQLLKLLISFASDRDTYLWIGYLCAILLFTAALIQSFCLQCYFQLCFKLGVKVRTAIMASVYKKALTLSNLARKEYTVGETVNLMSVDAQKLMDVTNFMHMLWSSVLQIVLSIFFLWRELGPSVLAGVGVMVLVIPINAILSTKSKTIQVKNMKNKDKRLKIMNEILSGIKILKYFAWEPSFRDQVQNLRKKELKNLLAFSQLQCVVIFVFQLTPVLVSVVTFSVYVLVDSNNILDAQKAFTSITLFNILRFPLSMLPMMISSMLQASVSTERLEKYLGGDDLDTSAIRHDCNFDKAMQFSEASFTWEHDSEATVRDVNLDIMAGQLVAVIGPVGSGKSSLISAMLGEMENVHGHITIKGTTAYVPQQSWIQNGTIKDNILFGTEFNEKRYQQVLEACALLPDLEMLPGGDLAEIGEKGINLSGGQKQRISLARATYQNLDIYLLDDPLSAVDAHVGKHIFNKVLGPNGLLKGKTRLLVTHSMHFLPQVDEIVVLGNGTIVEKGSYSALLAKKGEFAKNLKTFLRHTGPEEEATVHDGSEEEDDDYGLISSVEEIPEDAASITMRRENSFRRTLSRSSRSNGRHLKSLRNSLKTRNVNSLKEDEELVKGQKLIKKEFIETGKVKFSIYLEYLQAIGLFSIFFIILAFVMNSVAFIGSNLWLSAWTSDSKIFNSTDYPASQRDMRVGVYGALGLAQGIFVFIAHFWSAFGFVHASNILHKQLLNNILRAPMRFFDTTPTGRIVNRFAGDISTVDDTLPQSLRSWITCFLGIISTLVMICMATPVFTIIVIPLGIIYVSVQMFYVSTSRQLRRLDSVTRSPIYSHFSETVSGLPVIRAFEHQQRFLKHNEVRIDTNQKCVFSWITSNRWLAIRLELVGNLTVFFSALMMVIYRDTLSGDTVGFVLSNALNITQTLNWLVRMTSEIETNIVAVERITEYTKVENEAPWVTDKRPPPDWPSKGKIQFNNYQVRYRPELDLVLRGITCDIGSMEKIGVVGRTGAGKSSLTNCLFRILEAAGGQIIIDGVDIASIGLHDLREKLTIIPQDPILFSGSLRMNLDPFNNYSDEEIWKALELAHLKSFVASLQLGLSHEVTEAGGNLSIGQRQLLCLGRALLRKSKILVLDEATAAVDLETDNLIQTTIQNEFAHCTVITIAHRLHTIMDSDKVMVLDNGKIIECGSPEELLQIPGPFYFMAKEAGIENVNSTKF

In the case of `O=c1ccc2ccc(O)cc2o1` [UMBELLIFERONE], the Drug transport result in data set [1], in data set [2], in data set [3], in data set [4], in data set [5] and in data set [6] was “BLD” each time.

B1: ATP-binding cassette sub-family C member 4 (Homo sapiens) (protein)
chain: T1 sequence (O15439 whole entry)
In general, Km refers to the substrate concentration at which the rate is half of its maximum. The term Vmax denotes the rate approached at saturating substrate. Consider B1, for which, in data set [7], the Km was determined as 63 µM and the Vmax amounted to 0.00092 µmol/min/mg.

B2: ATP-binding cassette sub-family C member 3 (Homo sapiens) (protein)
chain: MDALCGSGELGSKFWDSNLSVHTENPDLTPCFQNSLLAWVPCIYLWVALPCYLLYLRHHCRGYIILSHLSKLKMVLGVLLWCVSWADLFYSFHGLVHGRAPAPVFFVTPLVVGVTMLLATLLIQYERLQGVQSSGVLIIFWFLCVVCAIVPFRSKILLAKAEGEISDPFRFTTFYIHFALVLSALILACFREKPPFFSAKNVDPNPYPETSAGFLSRLFFWWFTKMAIYGYRHPLEEKDLWSLKEEDRSQMVVQQLLEAWRKQEKQTARHKASAAPGKNASGEDEVLLGARPRPRKPSFLKALLATFGSSFLISACFKLIQDLLSFINPQLLSILIRFISNPMAPSWWGFLVAGLMFLCSMMQSLILQHYYHYIFVTGVKFRTGIMGVIYRKALVITNSVKRASTVGEIVNLMSVDAQRFMDLAPFLNLLWSAPLQIILAIYFLWQNLGPSVLAGVAFMVLLIPLNGAVAVKMRAFQVKQMKLKDSRIKLMSEILNGIKVLKLYAWEPSFLKQVEGIRQGELQLLRTAAYLHTTTTFTWMCSPFLVTLITLWVYVYVDPNNVLDAEKAFVSVSLFNILRLPLNMLPQLISNLTQASVSLKRIQQFLSQEELDPQSVERKTISPGYAITIHSGTFTWAQDLPPTLHSLDIQVPKGALVAVVGPVGCGKSSLVSALLGEMEKLEGKVHMKGSVAYVPQQAWIQNCTLQENVLFGKALNPKRYQQTLEACALLADLEMLPGGDQTEIGEKGINLSGGQRQRVSLARAVYSDADIFLLDDPLSAVDSHVAKHIFDHVIGPEGVLAGKTRVLVTHGISFLPQTDFIIVLADGQVSEMGPYPALLQRNGSFANFLCNYAPDEDQGHLEDSWTALEGAEDKEALLIEDTLSNHTDLTDNDPVTYVVQKQFMRQLSALSSDGEGQGRPVPRRHLGPSEKVQVTEAKADGALTQEEKAAIGTVELSVFWDYAKAVGLCTTLAICLLYVGQSAAAIGANVWLSAWTNDAMADSRQNNTSLRLGVYAALGILQGFLVMLAAMAMAAGGIQAARVLHQALLHNKIRSPQSFFDTTPSGRILNCFSKDIYVVDEVLAPVILMLLNSFFNAISTLVVIMASTPLFTVVILPLAVLYTLVQRFYAATSRQLKRLESVSRSPIYSHFSETVTGASVIRAYNRSRDFEIISDTKVDANQRSCYPYIISNRWLSIGVEFVGNCVVLFAALFAVIGRSSLNPGLVGLSVSYSLQVTFALNWMIRMMSDLESNIVAVERVKEYSKTETEAPWVVEGSRPPEGWPPRGEVEFRNYSVRYRPGLDLVLRDLSLHVHGGEKVGIVGRTGAGKSSMTLCLFRILEAAKGEIRIDGLNVADIGLHDLRSQLTIIPQDPILFSGTLRMNLDPFGSYSEEDIWWALELSHLHTFVSSQPAGLDFQCSEGGENLSVGQRQLVCLARALLRKSRILVLDEATAAIDLETDNLIQATIRTQFDTCTVLTIAHRLNTIMDYTRVLVLDKGVVAEFDSPANLIAARGIFYGMARDAGLA
With B2, in data set [8], the Michaelis constant (Km) came to 187 µM and the maximum rate (Vmax) was determined as 0.00046 µmol/min/mg.
